# Assay results from US20250230193A1, “CYCLIC COMPOUND HAVING SELECTIVE KRAS INHIBITORY EFFECT ON HRAS AND NRAS” (CHUGAI SEIYAKU KABUSHIKI KAISHA, priority 2022, published 2025).
# Where a SMILES comes first, the peptide text is derived from it. Bridges are numbered along the chain shown (N, C = ends). [ ]: non-standard residue; d: D form. The star is where a group is joined. hPhe(3-Cl-4-CF3) = N[C@@H](CCc1ccc(C(F)(F)F)c(Cl)c1)C(=O)O; NPrPhe(4-CF3) = CCCN[C@@H](Cc1ccc(C(F)(F)F)cc1)C(=O)O; NMeGly(cPent) = CN[C@H](C(=O)O)C1CCCC1; NMeF = CN[C@@H](Cc1ccccc1)C(=O)O; NMeD = CN[C@@H](CC(=O)O)C(=O)O; NMeL = CN[C@@H](CC(C)C)C(=O)O; Morpholide = C1CN(*)CCO1; Ac5c = NC1(C(=O)O)CCCC1; Aze = O=C(O)[C@@H]1CCN1; Sar = CNCC(=O)O
# How the values were obtained:
# [1] = molecular target: GDP-bound NRAS wild-type protein (Homo sapiens, UniProt P01111); assay: Binding to NRAS by surface plasmon resonance (SPR), Single Cycle Kinetics
# GDP-bound NRAS wild-type protein, sequence (P01111 whole entry): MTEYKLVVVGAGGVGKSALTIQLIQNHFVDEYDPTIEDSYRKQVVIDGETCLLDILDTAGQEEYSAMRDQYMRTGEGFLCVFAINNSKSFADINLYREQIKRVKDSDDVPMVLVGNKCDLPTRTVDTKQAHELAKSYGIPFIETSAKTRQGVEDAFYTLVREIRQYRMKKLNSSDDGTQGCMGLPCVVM
# [2] = molecular target: GDP-bound HRAS wild-type protein (Homo sapiens, UniProt P01112); assay: Binding to HRAS by surface plasmon resonance (SPR), Single Cycle Kinetics
# GDP-bound HRAS wild-type protein, sequence (P01112 whole entry): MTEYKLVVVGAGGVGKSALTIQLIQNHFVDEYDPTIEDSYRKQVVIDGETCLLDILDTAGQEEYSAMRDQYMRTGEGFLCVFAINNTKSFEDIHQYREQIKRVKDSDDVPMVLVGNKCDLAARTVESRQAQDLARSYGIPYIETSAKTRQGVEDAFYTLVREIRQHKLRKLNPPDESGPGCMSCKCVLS
# [3] = KD ratio NRAS/KRAS, class symbols
# [4] = KD ratio HRAS/KRAS, class symbols
smiles,measurement,setting,value
CCC[C@H]1C(=O)N[C@@H]([C@@H](C)CC)C(=O)N(C2CC2)CC(=O)N(C)[C@H]2C/C=C\CCN(C2=O)[C@@H](Cc2ccc(C(F)(F)F)cc2)C(=O)N(C)CC(=O)N[C@@H](CCc2cc(F)c(C(F)(F)F)c(F)c2)C(=O)N2C[C@H](OCC)C[C@H]2C(=O)NC2(CC(C)(C)C2)C(=O)N(C)[C@@H](CC2CCC2)C(=O)N(C)[C@H](C(=O)N(C)C)CC(=O)N1C [PP2768],NRAS/KRAS (ratio of KD value with respect to GDP-bound NRAS wild-type protein to KD value with respect to KRAS),[1]; [3],A (a compound having 10 or more and less than 20 is denoted as A)
same,HRAS/KRAS (ratio of KD value with respect to GDP-bound HRAS wild-type protein to KD value with respect to KRAS),[2]; [4],A (a compound having 10 or more and less than 20 is denoted as A)
CC[C@H](C)[C@@H]1NC(=O)[C@H](CC(C)C)N(C)C(=O)C[C@@H](C(=O)N(C)C)N(C)C(=O)[C@H](C2CCCC2)N(C)C(=O)C2(CCCC2)NC(=O)[C@@H]2CCCN2C(=O)[C@H](CCc2ccc(C(F)(F)F)c(Cl)c2)NC(=O)CN(C)C(=O)[C@H](Cc2ccc(C)cc2)N2CC=CCOC[C@H](C2=O)N(C)C(=O)CN(C)C1=O [PP0629],NRAS/KRAS (ratio of KD value with respect to GDP-bound NRAS wild-type protein to KD value with respect to KRAS),"[1]; KD ratio NRAS/KRAS, SPR",B (a compound having 3 or more and less than 10 is denoted as B)
same,HRAS/KRAS (ratio of KD value with respect to GDP-bound HRAS wild-type protein to KD value with respect to KRAS),"[2]; KD ratio HRAS/KRAS, SPR",C (A compound having a KD ratio of 0.1 or more and less than 3 is denoted as C)
CC[C@H](C)[C@@H]1NC(=O)[C@H](CC)N(C)C(=O)C[C@@H](C(=O)N(C)C)N(C)C(=O)[C@H](C2CCCC2)N(C)C(=O)C2(CCC2)NC(=O)[C@@H]2CCN2C(=O)[C@H](CCc2cc(F)c(C(F)(F)F)c(F)c2)NC(=O)CN(C)C(=O)[C@H](Cc2ccc(C(F)(F)F)cc2)N2CCCCC[C@@H](C2=O)N(C)C(=O)CN(C)C1=O [PP0654],NRAS/KRAS (ratio of KD value with respect to GDP-bound NRAS wild-type protein to KD value with respect to KRAS),"[1]; KD ratio NRAS/KRAS, SPR",B (a compound having 3 or more and less than 10 is denoted as B)
same,HRAS/KRAS (ratio of KD value with respect to GDP-bound HRAS wild-type protein to KD value with respect to KRAS),"[2]; KD ratio HRAS/KRAS, SPR",B (a compound having 3 or more and less than 10 is denoted as B)
CCC[C@H]1C(=O)N[C@@H]([C@@H](C)CC)C(=O)N(C)CC(=O)N(C)[C@H]2C/C=C\CCN(C2=O)[C@@H](Cc2ccc(C(F)(F)F)cc2)C(=O)N(C)CC(=O)N[C@@H](CCc2ccc3sc(F)c(C)c3c2)C(=O)N2C[C@H](OCC)C[C@H]2C(=O)NC2(CC(C)(C)C2)C(=O)N(C)[C@@H](C2CCCC2)C(=O)N(C)[C@H](C(=O)N(C)C)CC(=O)N1C [PP2948],NRAS/KRAS (ratio of KD value with respect to GDP-bound NRAS wild-type protein to KD value with respect to KRAS),[1]; [3],A (a compound having 10 or more and less than 20 is denoted as A)
same,HRAS/KRAS (ratio of KD value with respect to GDP-bound HRAS wild-type protein to KD value with respect to KRAS),[2]; [4],A (a compound having 10 or more and less than 20 is denoted as A)
CCCN1C(=O)[C@@H]2CCN2C(=O)[C@H](Cc2ccccc2)N(C)C(=O)[C@H]([C@@H](C)CC)NC(=O)[C@H](CC(C)C)N(C)C(=O)C[C@@H](C(=O)N2CCOCC2)N(C)C(=O)[C@H](C2CCCC2)N(C)C(=O)C2(CCCC2)NC(=O)[C@@H]2CCCN2C(=O)[C@H](CCc2ccc(C(F)(F)F)c(Cl)c2)NC(=O)CN(C)C(=O)[C@@H]1Cc1ccc(C(F)(F)F)cc1 [PP0209] ([NMeL]I[NMeF][Aze][NPrPhe(4-CF3)][Sar][hPhe(3-Cl-4-CF3)]P[Ac5c][NMeGly(cPent)][NMeD]-Morpholide; lactam N-11),NRAS/KRAS (ratio of KD for GDP-bound NRAS wild-type to KD for KRAS),"[1]; KD ratio NRAS/KRAS, SPR",C (A compound having a KD ratio of 0.1 or more and less than 3 is denoted as C)
same,HRAS/KRAS (ratio of KD for GDP-bound HRAS wild-type to KD for KRAS),"[2]; KD ratio HRAS/KRAS, SPR",C (A compound having a KD ratio of 0.1 or more and less than 3 is denoted as C)
CC[C@H](C)[C@@H]1NC(=O)[C@H](CC)N(C)C(=O)C[C@@H](C(=O)N(C)C)N(C)C(=O)[C@H](C2CCCC2)N(C)C(=O)C2(CCC2)N(C)C(=O)[C@@H]2CCCN2C(=O)[C@H](CCc2cc(F)c(C(F)(F)F)c(F)c2)NC(=O)CN(C)C(=O)[C@H](Cc2ccc(C(F)(F)F)cc2)N2CC/C=C\C[C@@H](C2=O)N(C)C(=O)CN(C)C1=O [PP1780],NRAS/KRAS (ratio of KD value for NRAS to KD value for KRAS),"[1]; KD ratio, GDP-bound NRAS wild-type vs GDP-bound KRAS wild-type, SPR",A (a compound having 10 or more and less than 20 is denoted as A)
same,HRAS/KRAS (ratio of KD value for HRAS to KD value for KRAS),"[2]; KD ratio, GDP-bound HRAS wild-type vs GDP-bound KRAS wild-type, SPR",A (a compound having 10 or more and less than 20 is denoted as A)
CCOC[C@H]1C(=O)N[C@@H]([C@@H](C)CC)C(=O)N(C)CC(=O)N(C)[C@H]2C/C=C\CCN(C2=O)[C@@H](CC2CCC(F)(F)CC2)C(=O)N(C)CC(=O)N[C@@H](CCc2cc(F)c(C(F)(F)F)c(F)c2)C(=O)N2C[C@@H](C)C[C@H]2C(=O)NC2(CC(C)(C)C2)C(=O)N(C)[C@@H](C(CC)CC)C(=O)N(C)[C@H](C(=O)N(C)C)CC(=O)N1C [PP2462],NRAS/KRAS (ratio of KD value with respect to NRAS to KD value with respect to KRAS),"[1]; SPR, GDP-bound NRAS wild-type vs GDP-bound KRAS wild-type",A (a compound having 10 or more and less than 20 is denoted as A)
same,HRAS/KRAS (ratio of KD value with respect to HRAS to KD value with respect to KRAS),"[2]; SPR, GDP-bound HRAS wild-type vs GDP-bound KRAS wild-type",A (a compound having 10 or more and less than 20 is denoted as A)
